Measurements: ChEMBL document CHEMBL1142920, “Second generation of 5-ethenylbenzofuroxan derivatives as inhibitors of Trypanosoma cruzi growth: synthesis, biological evaluation, and structure-activity relationships” (Bioorg Med Chem, 2007)

Columns and labels:
THP-1 = assay: Cytotoxicity against human THP1 cells assessed as reduction of cell viability after 48 hrs; assay type: cell-based; conditions: THP-1, 48 h
Trypanosoma cruzi [1] = assay: Antitrypanosomatid activity against Trypanosoma cruzi Y epimastigotes assessed as reduction of growth after 5 days; assay type: functional, organism-based; conditions: 120 h
Trypanosoma cruzi [2] = assay: Antitrypanosomatid activity against Trypanosoma cruzi Tulahuen 2 epimastigotes assessed as reduction of growth after 5 days; assay type: functional, organism-based; conditions: Tulahuen 2, 120 h
Trypanosoma cruzi [3] = assay: Antitrypanosomatid activity against Trypanosoma cruzi CL Brener epimastigotes assessed as reduction of growth after 5 days; assay type: functional, organism-based; conditions: 120 h
[4] = Ratio of IC50 for human THP1 cells to IC50 for Trypanosoma cruzi Y epimastigotes; assay type: functional, THP-1
[5] = Ratio of IC50 for human THP1 cells to IC50 for Trypanosoma cruzi CL Brener epimastigotes; assay type: functional, THP-1
[6] = Ratio of IC50 for human THP1 cells to IC50 for Trypanosoma cruzi Tulahuen 2 epimastigotes; assay type: functional, THP-1

IC50 (Trypanosoma cruzi [1]) [µM]	IC50 (Trypanosoma cruzi [2]) [µM]	IC50 (Trypanosoma cruzi [3]) [µM]	SMILES	IC50 (THP-1) [µM]	Ratio IC50 [4]	Ratio IC50 [5]	Ratio IC50 [6]
25	10.2	22.5	[O-][n+]1onc2cc(/C=C/c3ccc(O)cc3)ccc21	–	–	–	–
10	–	4.5	[O-][n+]1onc2cc(/C=C/c3ccc(C(F)(F)F)cc3)ccc21	–	–	–	–
–	> 25	–	N#Cc1ccc(/C=C/c2ccc3c(c2)no[n+]3[O-])cc1	–	–	–	–
–	> 25	–	O=C(O)c1ccc(/C=C/c2ccc3c(c2)no[n+]3[O-])cc1	–	–	–	–
8.5	8	5	COc1ccc(/C=C/c2ccc3c(c2)no[n+]3[O-])cc1	–	–	–	–
–	> 25	–	N#Cc1ccc(/C=C\c2ccc3c(c2)no[n+]3[O-])cc1	–	–	–	–
–	> 25	–	O=C(O)c1ccc(/C=C\c2ccc3c(c2)no[n+]3[O-])cc1	–	–	–	–
7.5	2.5	10	[O-][n+]1onc2cc(/C=C/c3cccc(F)c3)ccc21	–	–	–	–
9	–	7.5	[O-][n+]1onc2cc(C=Cc3ccc(Cl)cc3)ccc21	66.7	7.4	8.9	15.5
13.5	–	10.5	O=[N+]([O-])c1ccc(/C=C\c2ccc3c(c2)no[n+]3[O-])cc1	–	–	–	–
5.5	8.7	2.5	[O-][n+]1onc2cc(/C=C/c3ccc(Br)cc3)ccc21	–	–	–	–
22	15.7	4.4	CN(C)c1ccc(/C=C/c2ccc3c(c2)no[n+]3[O-])cc1	> 400	>18	>90	>25
24	15	–	[O-][n+]1onc2cc(/C=C/c3ccncc3)ccc21	–	–	–	–

Further lines, the compound ahead of its results:

SMILES	IC50 (Trypanosoma cruzi [1]) [µM]	IC50 (Trypanosoma cruzi [2]) [µM]	IC50 (Trypanosoma cruzi [3]) [µM]	IC50 (THP-1) [µM]	Ratio IC50 [4]	Ratio IC50 [5]	Ratio IC50 [6]
[O-][n+]1onc2cc(/C=C/c3ccc(Cl)cc3)ccc21	–	–	–	> 200	–	–	–
[O-][n+]1onc2cc(C=Cc3ccc4c(c3)OCO4)ccc21	–	–	–	81	–	–	–
CC(=O)Nc1ccc(/C=C\c2ccc3c(c2)no[n+]3[O-])cc1[N+](=O)[O-]	–	24	–	–	–	–	–
[O-][n+]1onc2cc(/C=C\c3ccc(Cl)cc3)ccc21	–	–	–	97	–	–	–
C(=C\c1ccc2nonc2c1)/c1ccc2c(c1)OCO2	> 25	> 25	> 25	–	–	–	–
CC(=O)N1CCN(c2ccc(OCC3COC(Cn4ccnc4)(c4ccc(Cl)cc4Cl)O3)cc2)CC1 (stereo not given) [KETOCONAZOLE]	–	–	–	–	4.5	8.8	4.4
CN(C/C=C/C#CC(C)(C)C)Cc1cccc2ccccc12 [TERBINAFINE]	–	–	–	–	7.4	7.8	–
C(=C/c1ccc2nonc2c1)/c1ccc2c(c1)OCO2	> 25	> 25	> 25	> 400	<40	<40	<40
[O-][n+]1onc2cc(/C=C/c3cccs3)ccc21	12.2	0.6	15	–	–	–	–
[O-][n+]1onc2cc(/C=C\c3ccc4c(c3)OCO4)ccc21	8.5	2.9	9	120	14.1	13.3	41.4
[O-][n+]1onc2cc(/C=C\c3ccc4nonc4c3)ccc21	–	> 25	–	–	–	–	–
CN(C)c1ccc(/C=C/c2ccc3nonc3c2)cc1	–	> 25	> 25	–	–	–	–
O=[N+]([O-])c1ccccc1/C=C/c1ccc2c(c1)no[n+]2[O-]	–	26.4	11.1	–	–	–	–
O=[N+]([O-])c1ccc(/C=C/c2ccc3c(c2)no[n+]3[O-])s1	4.5	6	3.5	–	–	–	–
[O-][n+]1onc2cc(/C=C/C3CCCCC3)ccc21	–	13.6	–	–	–	–	–
O=[N+]([O-])c1ccccc1/C=C\c1ccc2c(c1)no[n+]2[O-]	–	24.4	13.7	–	–	–	–
[O-][n+]1onc2cc(/C=C\c3ccccc3)ccc21	–	–	–	–	7	4	8.9
[O-][n+]1onc2cc(/C=C/c3ccc4c(c3)OCO4)ccc21	7.3	5.3	9	220	30.1	24.4	41.5
CCCC/C=C/c1ccc2c(c1)no[n+]2[O-]	–	19.7	12.8	–	–	–	–
COC(=O)/C=C/c1ccc2c(c1)no[n+]2[O-]	–	> 25	–	–	–	–	–
[O-][n+]1onc2cc(/C=C/c3ccccc3)ccc21	–	–	–	149	–	–	–
C=Cc1ccc2c(c1)no[n+]2[O-]	–	> 25	–	–	–	–	–
